Experimental data taken from patent US20090214607A1, “Topical use of teprenone” (SEDERMA, priority 2005, published 2009).

How the values were obtained:
[1] = Lipid peroxidation of liposomes using H2O2+FeCl2; assay type: biochemical; conditions: vs negative control
Experimental: (§1) In order to determine the action of teprenone as per the invention, the effect of the active substance on the lipid peroxidation of liposomes was analyzed. The liposomes were used to model cutaneous lipids.
In this method, liposomes are exposed to the test compound and a Fenton oxidative system. The peroxidation is determined by spectrophotometry. Trolox, a known anti-free radical agent, is used as the positive control at the same molar concentration as a teprenone.

[2] = tested on: sunburn cells (SBC) in human skin explants; experiment: Sunburn cells (SBC) in human skin explants after UVB; assay type: cell-based; conditions: after UVB 2 J/cm^2
Experimental: With a view to determining the action of teprenone as per the invention, the effect of the active substance on the presence of sunburn cells (SBC) and apoptotic cell in human skin explants was investigated.
Human skin explants are treated in a way similar to the preceding experiment of description of the protective role of the teprenone on the catalase activity (obtained from a patient having undergone plastic surgery, cultured with or without teprenone for 48 hours then exposed to UV B radiation (2 J/cm^2). After irradiation, the explants were again cultured in fresh medium with or without teprenone for 24 hours).
SBC were evidenced on paraffin-wax-embedded skin explant sections by staining with […]. SBC, apoptotic keratinocytes with pyknotic nuclei and eosinophilic cytoplasm, are characteristic of mammalian epidermis exposed to UV B radiation.

catalase = experiment: Catalase activity in human skin explants after UVB (Clairborne-Aebi method); assay type: cell-based; conditions: after UVB 2 J/cm2; 0.05 mM
Experimental: Human skin explants obtained from a patient having undergone plastic surgery were cultured with or without teprenone or Trolox (positive control) for 48 hours then exposed to UV B radiation (2 J/cm^2). After irradiation, the explants were again cultured in fresh medium with or without teprenone or Trolox for 24 hours. Similars explants were also used in immunolabeling tests on heat shock proteins (HSP) and in the apoptosis study.
Catalase anti-oxidant activity was determined by the Clairborne-Aebi method. Hydrogen peroxide (H2O2) consumption is directly proportional to catalase activity. The consumption was determined by spectrophotometry at 240 nm

Hsp27 = Hsp27 immunolabeling in UVB-irradiated human skin explants; assay type: cell-based; conditions: 0.1 mM
Excerpt: (§2) Heat Schock proteins (Hsp) are cellular protective molecules which contribute to the correct proteinic folding, thus preserving the protein activity. Hsp 27 is a protective chaperone protein very present in the keratinocytes at the basal state. In situation of UV stress, cell increases its rate of protection and Hsp 27 is strongly overexpressed. Hsp70 is a chaperone protein less expressed in a basal state but induced in response to the UV, thermics, mechanics or infectious stress.
(§3) Human skin explants are treated in a similar way to the previous experiment (protection on the catalase activity): taken from a plastic surgery, they are cultivated for 48 h in the presence or not, for control, of teprenone (or trolox) at various concentrations, then irradiated or not using a source UVB (2 J/cm2). After irradiation skin explants were post-treated (24 h) or not with teprenone (or trolox) at the same concentrations.
(§4) Explants were embedded in OCT, sectioned using a freezing microtome, and slide mounted. The mounted specimens were immunolabeled with anti-human Hsp antibody.

Hsp70 = Hsp70 immunolabeling in UVB-irradiated human skin explants; assay type: cell-based; conditions: 0.1 mM
Excerpt: as §2, §3, §4

[3] = Lipid peroxidation of liposomes using UVA radiation; assay type: biochemical; conditions: UVA induced, vs negative control
Experimental: as §1
In this method, liposomes are exposed to the test compound and then to UV A radiation. Peroxidation is determined by spectrophotometry at 233 nm.

**Q.** For Cc1c(C)c2c(c(C)c1O)CCC(C)(C(=O)O)O2 (centres unmarked) [Trolox, 6-hydroxy-2,5,7,8-tetramethylchroman-2-carboxylic acid], which Variation of peroxydation ([1]; concentration 2.2 · 10^−2%) is on record?
**A.** Its Variation of peroxydation is −88%.

**Q.** And the Variation of peroxydation ([1]; concentration 2.2 · 10^−3%)?
**A.** The Variation of peroxydation was −87%.

**Q.** And the Variation of peroxydation ([1]; concentration 2.2 · 10^−4%)?
**A.** The Variation of peroxydation was −83%.

**Q.** What about the Variation of peroxydation ([1]; concentration 7.5 · 10^−3%) of the same compound?
**A.** Its Variation of peroxydation is −87%.

**Q.** And the Variation of peroxydation ([1]; concentration 7.5 · 10^−4%)?
**A.** Its Variation of peroxydation is −82%.

**Q.** What about the “% SBC (Sun Burn Cells)” value ([2]; 0.05 mM) of the same compound?
**A.** Its value is 45%.

**Q.** And the “% SBC (Sun Burn Cells)” value ([2]; 0.1 mM)?
**A.** The value was 30%.

**Q.** And the catalase activity (catalase)?
**A.** Its catalase activity is 90 UI/mg of protein.

**Q.** And the “Hsp27: Protection vs. irradiated (%)” value (Hsp27)?
**A.** The value was 75%.

**Q.** What about the “Number of Hsp27 positive cells/cm” value (Hsp27; UVB 2 J/cm2, n = 3) of the same compound?
**A.** The value was 380 cells/cm.

**Q.** What about the “Hsp70: Protection vs. irradiated (%)” value (Hsp70) of the same compound?
**A.** The value was 100%.

**Q.** What about the “Number of Hsp70 positive cells/cm” value (Hsp70; UVB 2 J/cm2, n = 3) of the same compound?
**A.** The value was 40 cells/cm.

**Q.** What about the Variation of peroxydation ([3]; concentration 2.2 · 10^−2%) of the same compound?
**A.** The Variation of peroxydation was −86%.

**Q.** What about the Variation of peroxydation ([3]; concentration 2.2 · 10^−3%) of the same compound?
**A.** The Variation of peroxydation was −88%.

**Q.** What about the Variation of peroxydation ([3]; concentration 2.2 · 10^−4%) of the same compound?
**A.** The Variation of peroxydation was −74%.

**Q.** What about the Variation of peroxydation ([3]; concentration 7.5 · 10^−3%) of the same compound?
**A.** Its Variation of peroxydation is −88%.

**Q.** And the Variation of peroxydation ([3]; concentration 7.5 · 10^−4%)?
**A.** Its Variation of peroxydation is −86%.
